The nature of series [1]: Ability to cross the blood/brain barrier, endothelial cell/astrocyte coculture model. The series is classed as in vitro ADME. As to conditions: in vitro coculture model, 37° C.; read-out: coefficient of permeability of the blood/brain barrier (Pe) (converted). As for the experimental part: (§1) In order to study the functions of cerebral capillaries "in vitro", we developed a coculture model which allows the "in vivo" situation to be recreated. The endothelial cells of capillaries and astrocytes are cultured on either side of a filter.
(§2) The endothelial cells are cultured in the upper compartment on the filter and the astrocytes in the lower compartment on the bottom of the Petri dish.
(§3) On the day of the experiment, a solution of Ringer-HEPES (150 mM NaCl; 5.2 mM KCl; 2.2 mM CaCl2; 0.2 mM MgCl2 ·6H2 O; 6 mM NaHCO3; 5 mM HEPES; 2.8 mM glucose) is placed in the lower compartment of a 6-well dish (3 ml per well). A filter of covered with a monolayer of endothelial cells is transferred into the first well of the 6-well dish. 2 ml of the Ringer-HEPES solution containing the test compound are placed in the upper compartment of the filter. […] The experiments are performed in triplicate with filters covered with a monolayer of endothelial cells from cerebral capillaries or of collagen alone as control. They are agitated at 37° C. throughout the experiment.
(§4) In the graph clearance=f(t), measurement of the slope gives the value "PSt" where PS=permeability×surface area of the monolayer (in μl/min) for the filters covered with cerebral capillary endothelial cells. "PSf" is calculated in the same way for the control filters. The permeability for the monolayer of endothelial cells alone (PSe) is given by: [formula]
(§5) The coefficient of endothelial permeability "Pe" is calculated by dividing "PSe" by the surface area of the monolayer of endothelial cells. "Pe" is expressed in "cm/min".

The test system of series [2] is blood/brain barrier model (monolayer of cerebral capillary endothelial cells cocultured with astrocytes). Described as above. In kind it is in vitro ADME. The settings on record: concluded from the coefficient of permeability. Here is the method:
as §1, §2, §3, §4, §5

The subject of series [3] is isolated rat heart (myocardium). Kind of series: Ischemia-reperfusion sequence on isolated rat heart (contractile function and myocytic energetic metabolic response, 31P NMR). As to conditions: 5×10^-6 M; for intracellular pH at the end of the ischemia: control falls from pH 7.2 to pH 6.0. Here is the method:
Study of the compounds of the invention on the contractile function of the myocardium and on the myocytic energetic metabolic response in the course of an ischemia-reinfusion sequence (isolated rat heart).
This study was carried out by means of the use of ^31 P NMR spectroscopy, this technique allowing the monitoring, on an isolated and infused heart, of the variation in the contents of phosphorylated compounds (ATP, phosphocreatine, inorganic phosphate) and in the intracellular pH. It allows continuous investigation of a number of variables linked with the energetic state of the myocardium and allows a comparative evaluation of the antiischemic properties of several products.
The isolated rat heart is infused aortically at a constant pressure (100 cm of water) for 30 min. and is then subjected to a partial global ischemia (coronary output reduced to 1.3% of the initial output) for 24 min., and, lastly, the heart is reinfused at constant pressure for 30 min.
Throughout the experiment, NMR spectra corresponding to 3-minute-long acquisitions are recorded. After statistical exploitation, they serve to determine the intracardial concentration of ATP, of phosphocreatine (PC) and of inorganic phosphate (Pi), as well as to evaluate the intracellular pH.
This procedure is intended to assess the effect of the presence of the product before and during the ischemia. To this end, the product is administered in the infusion medium after normoxic infusion for 20 min; it remains present in the infusion solution throughout the remainder of the experiment. A concentration of 5×10^-6 M was chosen for this comparative study.
This is intended to evaluate the effects of the products on the heart function. The heart is infused under the conditions defined above, and a catheter connected to a pressure sensor is introduced into the left ventrical (via the atrium) in order to monitor the pressure changes developed by the LV. The heart rate and the heart output are also monitored.
This is carried out in a superconducting magnet of 5.9 T in order to record the ^31 P NMR spectra. This series of experiments is intended to evaluate the impact of the product on the energetic equilibrium of the myocardium both in normoxia, in ischemia and in reinfusion.

Series [4] relates to mitochondrial ATP synthesis (isolated rat liver mitochondria). Kind of series: Mitochondrial energy (ATP) production during experimental calcium overload (cyclosporin A), isolated rat liver mitochondria. In kind it is biochemical. As to conditions: 1×10^-6 M. Here is the method:
Briefly, the mitochondria are extracted from rat livers. Mitochondrial respiration (1.5 mg of proteins placed in a reaction chamber) is brought about by the addition of sodium succinate, which is used as substrate (at 6×10^-4 M) and oxidative phosphorylation is triggered by the addition of ADP to the survival medium up to a final concentration of 1×10^-5 M. By recording the rates of oxygen consumption (in nmol/min./mg of mitochondrial protein) it is possible to calculate the characteristic parameters of the mitochondrial energy synthesis in the form of ATP.

The values that follow come from patent publication US5849745A, “N-benzylpiperazine compounds” (ADIR et Compagnie, priority 1996, dated 1998).

Counter-ions that a name gives are not always drawn.

Regarding `CCN1CCN(Cc2ccc(OC)c(OC)c2OC(=O)[C@@H]2C[C@H]2c2ccccc2)CC1` (relative stereo) [Example 1, N-(3,4-Dimethoxy-2-E-phenylcyclopropylcarbonyloxy)benzyl-N'-ethylpiperazinedihydrochloride], in series [1], the Papp is more than 16.7 ×10⁻⁶ cm/s. Further, in series [2], the “penetration into the brain (in words)” value is “penetrate the brain very easily”. In series [3], the “cytoprotective effect during an ischemia-reinfusion sequence of the myocardium, compared with trimetazidine” value is listed as “greatly increased”; the “effect on the intracellular acidosis induced by the ischemia” value was “particularly pronounced”; the “intracellular pH at the end of the ischemia” value stood at 6.5. Besides, in series [4], the “restoration of mitochondrial ATP synthesis” value stood at 100%.
Consider `COc1ccc(CN2CCN(Cc3ccccc3)CC2)c(OC(=O)[C@@H]2C[C@H]2c2ccccc2)c1OC` (relative stereo) [Example 2, N-(3,4-Dimethoxy-2-E-phenylcyclopropylcarbonyloxy)benzyl-N'-benzylpiperazine dihydrochloride], for which the Papp in series [1] was more than 16.7 ×10⁻⁶ cm/s. Besides, the “penetration into the brain (in words)” value in series [2] is “penetrate the brain very easily”.
For the compound `CCN1CCN(Cc2ccc(OC)c(OC)c2OC(=O)[C@@H]2C[C@H]2c2ccccc2)CC1` [Example 17, N-(3,4-Dimethoxy-2-E-(R,R)-phenylcyclopropylcarbonyloxy)benzyl-N'-ethylpiperazine dihydrochloride], the Papp in series [1] is more than 16.7 ×10⁻⁶ cm/s. Also, the “penetration into the brain (in words)” value in series [2] is given as “penetrate the brain very easily”.
Regarding `CCN1CCN(Cc2ccc(OC)c(OC)c2OC(=O)[C@H]2C[C@@H]2c2ccccc2)CC1` [Example 19, N-(3,4-Dimethoxy-2-E-(S,S)-phenylcyclopropylcarbonyloxy)benzyl-N'-ethylpiperazine dihydrochloride], the Papp in series [1] was more than 16.7 ×10⁻⁶ cm/s. In series [2], the “penetration into the brain (in words)” value is given as “penetrate the brain very easily”.
On to `COc1ccc(CN2CCNCC2)c(OC)c1OC` [trimetazidine, 2,3,4-trimethoxybenzylpiperazine, reference compound], for which the Papp in series [1] was 7 ×10⁻⁶ cm/s. Further, the “penetration into the brain (in words)” value in series [2] was “penetrates poorly into the brain”. In series [3], the “intracellular pH at the end of the ischemia” value was 6.35.
